Reference: US20230286973A1, “PROTEIN SECRETION INHIBITORS” (KEZAR LIFE SCIENCES, priority 2020, published 2023)
pEC50, pIC50: −log10 of the molar value. Where two headings read alike, the source gives them in different places.

Assays:
[1] = test system: multiple myeloma cell line U266B1; experiment: U266 Cell Viability Assay; format: cell-based, human; settings: Homo sapiens, U-266, 48 h, U266B1 cells, Celltiter-Glo
Procedure, shortened: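 Luminescent ATP read-out (CellTiter-Glo) after 48 h compound exposure at 37° C., 5% CO2; cells maintained in RPMI 1640/10% FBS/2 mM glutamine/pen-strep, compounds diluted in DMSO/media.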

[2] = Liver Microsome Stability Assay (mouse); settings: mouse liver microsomes, with NADPH, 1.0 uM compound
Description: (§1) Stability of a compound was assessed in the presence of liver microsomes from various sources—mouse, rat, monkey and human liver microsomes. 1.0 uM compound, 0.4% DMSO in 0.1 M Potassium Phosphate with 1.0 mg/mL liver microsomes, were incubated at 37° C. with or without 1 mM NADPH. The samples were quenched at 0, and 30 minutes.

[3] = test system: PD1-ss+10aa/Gaussia Luciferase; experiment: Dox-Induced PD1-ss-Gluc Assay; format: cell-based; settings: 24 hr Dox induction, 293FRT/TO cells, read-out: 24 hr Dox Inducible PD1ssGluc 293FRT/TO: Mean IC50
Procedure, shortened: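 Flp-In 293 T-REx cells stably carrying a doxycycline-inducible Gaussia luciferase fused to the PD1 signal sequence plus 10 aa were plated the day before. Compound dilutions in DMSO/media containing doxycycline were then added and incubated at 37 °C, 5% CO2. Data for undefined stereochemistry refer to stereoisomer mixtures.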

[4] = test system: multiple myeloma cell line NCI-H929; experiment: H929 Cell Viability Assay; format: cell-based, human; settings: Homo sapiens, NCI-H929, 48 h, NCI-H929 cells, Celltiter-Glo
Procedure, shortened: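 Cells in RPMI 1640/10% FBS; compound dilutions in DMSO/media; 48 h, 37° C, 5% CO2; CellTiter-Glo luciferase readout for viability.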

[5] = Liver Microsome Stability Assay (rat); settings: rat liver microsomes, with NADPH, 1.0 uM compound
Description: as §1

[6] = Liver Microsome Stability Assay (monkey); settings: monkey liver microsomes, with NADPH, 1.0 uM compound
Description: as §1

[7] = Liver Microsome Stability Assay (human); settings: human liver microsomes, with NADPH, 1.0 uM compound
Description: as §1

[8] = test system: TNFα-FL/Gaussia Luciferase; experiment: Dox Induced TNFα-FL-Gluc Assay; format: cell-based; settings: for pIC50: 24 hr Dox induction, 293FRT/TO cells, read-out: 24 hr Dox Inducible TNFaFLGluc 293FRT/TO: Mean IC50; for 24 hr Dox Inducible TNFaFLGluc 293FRT/TO: TNF/PD1: ratio of TNFaFLGluc IC50 to PD1ssGluc IC50
Procedure, shortened: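 Cell line: stable Flp-In 293 T-REx, TNFα-FL(1-233)-Gaussia luciferase fusion, T-REx-inducible. Plated day -1; compounds in DMSO/media + doxycycline, 37 °C, 5% CO2. Undefined stereocentres = mixture tested.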

[9] = test system: HER3-ss+4aa/Gaussia Luciferase; experiment: Dox-Induced Her3-ss-Gluc Assay; format: cell-based; settings: 24 hr Dox induction, 293FRT/TO cells, read-out: 24 hr Dox Inducible Her3(ss + 4)Gluc 293FRT/TO: Mean IC50
Procedure, shortened: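 Flp-In 293 T-REx cells, stable HER3-ss+4aa/Gaussia luciferase insert, hygromycin/blasticidin selected; plated day before; compound in DMSO/media + doxycycline; 37° C., 5% CO2.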

[10] = test system: IL-2-FL/Gaussia Luciferase; experiment: Dox Induced IL2-FL-Gluc Assay; format: cell-based; settings: for pIC50: 24 hr Dox induction, 293FRT/TO cells, read-out: 24 hr Dox Inducible IL2FLGluc 293FRT/TO: Mean IC50; for 24 hr Dox Inducible IL2FLGluc 293FRT/TO: IL2/PD1: ratio of IL2FLGluc IC50 to PD1ssGluc IC50
Procedure, shortened: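 Stable Flp-In 293 T-REx line, Tet-regulated IL-2 (aa 1-153)–Gaussia luciferase fusion; hygromycin/blasticidin selected. Plated day -1; compound + doxycycline added next day; 37° C, 5% CO2.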

[11] = '<=>' given where both are I.A.

Row | Structure (SMILES) | pEC50 [1] | Liver Microsome Stability (Multiple Species): Mouse - % Remaining after 30 min w/NADPH [2] | pIC50 ([3]; mean) | pEC50 [4] | Liver Microsome Stability (Multiple Species): Rat - % Remaining after 30 min w/NADPH [5] | Liver Microsome Stability (Multiple Species): Monkey - % Remaining after 30 min w/NADPH [6] | Liver Microsome Stability (Multiple Species): Human - % Remaining after 30 min w/NADPH [7] | pIC50 ([8]; mean) | pIC50 ([9]; mean) | pIC50 ([10]; mean) | pIC50 [3] | pIC50 [8] | pIC50 [9] | pIC50 [10] | 24 hr Dox Inducible TNFaFLGluc 293FRT/TO: TNF/PD1 [8, 11] | 24 hr Dox Inducible IL2FLGluc 293FRT/TO: IL2/PD1 [10, 11] | 24 hr Dox Inducible TNFaFLGluc 293FRT/TO: TNF/PD1 [8] | 24 hr Dox Inducible IL2FLGluc 293FRT/TO: IL2/PD1 [10]
1 | CN1c2ccccc2CCC1/C=C/c1csc(NC(=O)c2cccn2Cc2ccncc2)n1 (stereo not drawn) [Compound B8, (E)-N-(4-(2-(1-methyl-1,2,3,4-tetrahydroquinolin-2-yl)vinyl)thiazol-2-yl)-1-(pyridin-4-ylmethyl)-1H-pyrrole-2-carboxamide] | < 4.60 | 5.24% | – | 4.62 | 7.12% | 0.47% | 0.69% | – | – | – | 6.58 | 5.45 | 6.21 | 6.06 | – | – | 13.6 | 3.4
2 | CC(CC(N)=O)n1cnc(/C=C/c2csc(NC(=O)c3cccn3Cc3ccnc(F)c3)n2)c1 (stereo not drawn) [Compound B111, (E)-N-(4-(2-(1-(4-amino-4-oxobutan-2-yl)-1H-imidazol-4-yl)vinyl)thiazol-2-yl)-1-((2-fluoropyridin-4-yl)methyl)-1H-pyrrole-2-carboxamide] | < 4.60 | 61.7% | – | < 4.60 | 75.4% | 5.79% | 9.45% | – | – | – | < 4.60 | < 4.60 | < 4.60 | < 4.60 | – | – | ⇔1.00 | <=>1.0
3 | O=C1CCc2cc(N3CCC[C@@H]3c3csc(NC(=O)c4cccn4Cc4ccncc4)n3)ccc2N1 [Compound A75, (R)-N-(4-(1-(2-oxo-1,2,3,4-tetrahydroquinolin-6-yl)pyrrolidin-2-yl)thiazol-2-yl)-1-(pyridin-4-ylmethyl)-1H-pyrrole-2-carboxamide] | < 4.60 | 3.74% | – | 6.60 | 0.05% | 0.87% | 6.4% | – | – | – | 8.60 | 7.15 | 9.22 | 8.09 | – | – | 28.4 | 3.2
4 | Cc1cc(C(=O)Nc2nc([C@H]3CCCN3c3ccccc3)cs2)n(Cc2ccncc2)c1 [Compound A115, (R)-4-methyl-N-(4-(1-phenylpyrrolidin-2-yl)thiazol-2-yl)-1-(pyridin-4-ylmethyl)-1H-pyrrole-2-carboxamide] | 5.14 | 3.39% | – | 5.70 | 9.02% | 3.2% | 14.6% | – | – | – | 7.38 | 6.23 | 7.05 | 6.91 | – | – | 14.1 | 2.9
5 | O=C(Nc1nc(/C=C/c2cn(C3CCCCC3)cn2)cs1)c1cccn1Cc1ccncc1 [Compound B54, (E)-N-(4-(2-(1-cyclohexyl-1H-imidazol-4-yl)vinyl)thiazol-2-yl)-1-(pyridin-4-ylmethyl)-1H-pyrrole-2-carboxamide] | < 4.63 | 4.16% | – | 4.86 | 4.57% | 2.69% | 0.4% | – | – | – | 8.16 | 5.03 | 5.53 | 5.26 | – | – | 1370 | 810
6 | O=C(Nc1nc(/C=C/c2ncco2)cs1)c1cccn1Cc1ccncc1 [Compound B34, (E)-N-(4-(2-(oxazol-2-yl)vinyl)thiazol-2-yl)-1-(pyridin-4-ylmethyl)-1H-pyrrole-2-carboxamide] | < 4.60 | 0.97% | – | < 4.60 | 0.87% | 1.77% | 0.75% | – | – | – | 6.11 | < 4.60 | < 4.60 | < 4.60 | – | – | >32.1 | >32

More lines, main results first:

Row | pEC50 [1] | Liver Microsome Stability (Multiple Species): Mouse - % Remaining after 30 min w/NADPH [2] | pIC50 ([3]; mean) | pEC50 [4] | Liver Microsome Stability (Multiple Species): Rat - % Remaining after 30 min w/NADPH [5] | Liver Microsome Stability (Multiple Species): Monkey - % Remaining after 30 min w/NADPH [6] | Liver Microsome Stability (Multiple Species): Human - % Remaining after 30 min w/NADPH [7] | pIC50 ([8]; mean) | pIC50 ([9]; mean) | pIC50 ([10]; mean) | pIC50 [3] | pIC50 [8] | pIC50 [9] | pIC50 [10] | Structure (SMILES) | 24 hr Dox Inducible TNFaFLGluc 293FRT/TO: TNF/PD1 [8, 11] | 24 hr Dox Inducible IL2FLGluc 293FRT/TO: IL2/PD1 [10, 11] | 24 hr Dox Inducible TNFaFLGluc 293FRT/TO: TNF/PD1 [8] | 24 hr Dox Inducible IL2FLGluc 293FRT/TO: IL2/PD1 [10]
7 | < 4.60 | 9.27% | 4.65 | < 4.60 | 10.3% | 30.9% | 58.7% | < 4.60 | < 4.60 | 5.17 | – | – | – | – | Cn1cccc1C(=O)Nc1nc([C@H]2CCCN2c2ccccc2)cs1 [Compound C17, (R)-1-methyl-N-(4-(1-phenylpyrrolidin-2-yl)thiazol-2-yl)-1H-pyrrole-2-carboxamide] | >1.12 | 0.3 | – | –
8 | 4.64 | 0.25% | 6.31 | 4.62 | 0.33% | 0.13% | 0.1% | 5.28 | 5.95 | 5.73 | – | – | – | – | COc1ccc(O[C@H]2CC[C@H](c3csc(NC(=O)c4cccn4Cc4ccncc4)n3)C2)nc1 [Compound E38, N-(4-((1S,3S)-3-((5-methoxypyridin-2-yl)oxy)cyclopentyl)thiazol-2-yl)-1-(pyridin-4-ylmethyl)-1H-pyrrole-2-carboxamide] | 10.7 | 3.8 | – | –
9 | < 4.60 | 0.27% | 6.36 | < 4.60 | 0.19% | 0.14% | 0.12% | < 4.60 | 5.29 | 5.28 | – | – | – | – | Cc1nc(CCc2csc(NC(=O)c3cccn3Cc3ccncc3)n2)co1 [Compound E4] | >57.0 | 12 | – | –
